US20240317748A1, “CARBONYL SUBSTITUTED DIAZASPIRO COMPOUNDS AND ITS USE” (BIONOVA PHARMACEUTICALS (SHANGHAI) LIMITED, priority 2021, published 2024)

Columns and labels:
[1] = target: T1, Menin-MLL1 (Homo sapiens, UniProt O00255); assay: Menin-MLL1 inhibition assay (fluorescence polarization, Menin protein + FAM-MLL peptide); format: binding; conditions: Menin (2-610) isoform 2, FAM-labelled MLL peptide, mP readout; read-out: Biochemical assay Menin-MLL1 IC50
T1 construct: Menin (2-610) isform2; purchased ChemPartner 2020111101
T1 sequence (O00255 2-610): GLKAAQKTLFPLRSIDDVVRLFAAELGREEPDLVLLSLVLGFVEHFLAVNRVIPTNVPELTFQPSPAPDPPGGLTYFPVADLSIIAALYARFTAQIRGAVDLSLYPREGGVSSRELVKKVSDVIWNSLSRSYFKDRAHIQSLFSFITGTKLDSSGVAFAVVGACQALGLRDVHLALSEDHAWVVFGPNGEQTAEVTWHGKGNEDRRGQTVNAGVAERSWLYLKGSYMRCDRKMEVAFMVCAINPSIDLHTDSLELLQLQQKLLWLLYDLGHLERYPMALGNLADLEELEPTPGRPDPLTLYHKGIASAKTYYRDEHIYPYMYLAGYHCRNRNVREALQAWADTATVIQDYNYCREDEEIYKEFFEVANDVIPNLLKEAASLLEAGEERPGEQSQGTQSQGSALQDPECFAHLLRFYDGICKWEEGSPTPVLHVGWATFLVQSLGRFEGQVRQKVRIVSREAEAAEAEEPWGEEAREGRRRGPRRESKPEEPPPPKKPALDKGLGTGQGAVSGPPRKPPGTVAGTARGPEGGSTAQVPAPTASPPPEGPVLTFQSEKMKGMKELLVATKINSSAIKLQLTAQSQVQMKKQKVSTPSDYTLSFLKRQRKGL
Procedure: 1× assay bu9ffer (Tris 7.5 50 mM, NaCl 50 mM, DTT 1 mM, Tween-20 0.01%) was prepared and test compounds solution (10 mM in DMSO, Sigma, Cat. No. 34869) were transferred to assay plate (384-well plate, Perkin Elmer, Cat. No. 6007279) by Echo. The final fraction of DMSO is 1%. 20 nM of Menin protein (Menin (2-610) isform2, ChemPartner, Cat. No. 2020111101) in 1× assay buffer was added to prepare 2× enzyme solution. Then 10 nM of MLL-peptide (Ac-SRWRFPARPGTGRR-Ahx-Ahx-K(FAM)-NH2, GL Biochem (Shanghai)), Cat. No. 833831/202009220104) in 1× assay buffer was added to prepare 2× substrate solution. 10 μL of 2× enzyme solution was transferred to assay plate or 10 μL of 1× assay buffer for low control group. 10 μL of 2× substrate solution was added to each well to start reaction. mP data on Envision (Ex480/Em535(s), Em535(p)) was collected.
Compound potencies were determined by first calculating % inhibition at each compound concentration according to equation 1:
Inhibition %=(Max−Signal)/(Max−Min)*100 (Equation 1)
Y=Bottom+(Top-Bottom)/(1+(IC50/X)[…]), where Y is % inhibition and X is compound concentration (Equation 2)

[2] = test system: MV-4-11 cells; assay: Cell proliferation assay (CellTiter-Glo), MV-4-11; format: cell-based, human; conditions: Homo sapiens, MV4-11, 96 h; MV-4-11 (MLL-AF4), 4 days incubation; read-out: Cell antiproliferation assay MV-4-11 IC50
Procedure: The antiproliferative activity of test compounds was assessed in human leukemia cell lines. The cell line MV4-11, MOLM13 and OCI-AML3, which expresses the MLL fusion protein MLL-AF4, MLL-AF9 and carry the NPM1c gene mutation, respectively, were tested. HL-60 was used as a control cell line containing two MLL wildtype alleles in order to exclude compounds that display general cytotoxic effect. MV4-11 cells were cultured in IMDM supplemented with 10% FBS, MOLM13 and OCI-AML3 cells were cultured in RPMI1640 supplemented with 20% FBS, and HL-60 cells were cultured in IMDM supplemented with 20% FBS. Corresponding cells (MV4-11, MOLM13, OCI-AML3 or HL-60 cell line) were seeded in 100 uL medium per well in 96-well plate (white wall with clear bottom, tissue culture treated, Corning, Cat. No. CLS3903; Lot.No. 30419025). Plates were placed in the CO2 incubator overnight. Compounds solution (2 mM starting, 4-fold serial dilution) were prepared and added to the wells containing 100 μL of the culture medium with HPD300 according to the plate map and centrifuge at 1000 rpm for 1 minutes (200-fold dilution totally). MV4-11, MOLM13, OCI-AML3 and HL-60 cells were incubated with the compounds for 4, 12, 5 and 4 days, respectively, under 5% CO2 at 37° C., respectively. 100 μL of CellTiter-Glo reagent (Promega, Cat. No. G7573, Lot. No. 0000416710) was added to the assay plate by Multidrop Combi instrument, contents were mixed for 10 minutes on an orbital shaker to induce cell lysis. After incubation at room temperature for 10 mins, clear bottom with white back seal was pasted and luminescence with Envision was read.

Structure (SMILES)	IC50 [1]	IC50 [2]
CC(C)N(C(=O)c1cc(F)ccc1Oc1nncnc1N1CC2(CCN(C(=O)[C@@H]3C[C@@H](C)CN3)CC2)C1)C(C)C [Example 73]	0.0041 µM	0.022 µM
[2H]c1c(F)cc(C(=O)N(CC)C(C)C)c(Oc2cncnc2N2CC3(CCN(C(=O)[C@@H]4C[C@@H](F)CN4)CC3)C2)c1[2H] [Example 31]	0.0067 µM	0.041 µM
CCN(C(=O)c1ccccc1Oc1cncnc1N1CC2(CCN(C(=O)[C@@H]3C[C@@H](F)CN3)CC2)C1)C(C)C [Example 36]	0.004 µM	0.066 µM
CCN(C(=O)c1cc(F)ccc1Oc1nncnc1N1CC2(CCN(C(=O)C3NC[C@H]4CC(F)(F)C[C@@H]34)CC2)C1)C(C)C (single isomer, unassigned) [Example 98c]	0.0445 µM	
CCN(C(=O)c1cc(F)ccc1Oc1nncnc1N1CC2(CCN(C(=O)[C@@H]3NC[C@@H]4CC(F)(F)C[C@@H]43)CC2)C1)C(C)C (single isomer, unassigned) [Example 98b]	0.022 µM	2.64 µM
C[C@@H]1COCCN1C(=O)c1cc(F)ccc1Oc1cncnc1N1CC2(CCN(C(=O)[C@@H]3C[C@@H](F)CN3)CC2)C1 [Example 51]	0.0043 µM	0.221 µM
[2H]C([2H])(C)N(C(=O)c1cc(F)ccc1Oc1nncnc1N1CC2(CCN(C(=O)[C@H]3NC[C@@H]4CCC[C@@H]43)CC2)C1)C(C)C [Example 102]	0.0054 µM	0.0046 µM
CC(C)N(C(=O)c1cc(F)ccc1Oc1nncnc1N1CC2(CCN(C(=O)[C@H]3NCC[C@H]3C)CC2)C1)C(C)C [Example 76]	0.0037 µM	0.0167 µM
N#Cc1ccc(-c2cc(F)ccc2Oc2nncnc2N2CC3(CCN(C(=O)[C@H]4NC[C@@H]5C[C@@H]54)CC3)C2)c(C2CC2)n1 [Example 94]	0.0034 µM	0.0118 µM
CC[C@@H]1CCN[C@H]1C(=O)N1CCC2(CC1)CN(c1ncnnc1Oc1ccc(F)cc1C(=O)N(CC)C(C)C)C2 [Example 71]	0.016 µM	1.25 µM
CCN(C(=O)c1cc(F)ccc1Oc1cncnc1N1CC2(CCN(C(=O)[C@H]3NCc4c3cnn4Cc3ccccc3)CC2)C1)C(C)C [Example 44]	0.0039 µM	0.0307 µM
CC(C)N(CCO)C(=O)c1cc(F)ccc1Oc1nncnc1N1CC2(CCN(C(=O)[C@H]3NC[C@@H]4CCC[C@@H]43)CC2)C1 [Example 104]	0.0045 µM	0.0267 µM
CO[C@H]1CCN[C@@H]1C(=O)N1CCC2(CC1)CN(c1ncnnc1Oc1ccc(F)cc1-c1ccc(C#N)nc1C1CC1)C2 [Example 101]	0.006 µM	0.0068 µM
CCN(C(=O)c1cc(F)ccc1Oc1nncnc1N1CC2(CCN(C(=O)[C@@H]3NCC[C@H]3C(F)F)CC2)C1)C(C)C [Example 99b, 2-((5-(7-((2R,3R)-3-(difluoromethyl)pyrrolidine-2-carbonyl)-2,7-diazaspiro[3.5]nonan-2-yl)-1,2,4-triazin-6-yl)oxy)-N-ethyl-5-fluoro-N-isopropylbenzamide]	0.043 µM	1.93 µM
CC(C)N(CC(F)F)C(=O)c1cc(F)ccc1Oc1cncnc1N1CC2(CCN(C(=O)[C@@H]3C[C@@H](F)CN3)CC2)C1 [Example 45]	0.0034 µM	0.0361 µM

Other lines, results leading:

IC50 [1]	IC50 [2]	Structure (SMILES)
0.0184 µM	0.42 µM	CCN(C(=O)c1cc(F)ccc1Oc1cncnc1N1CC2(CCN(C(=O)[C@@H]3C[C@@H](C#N)CN3)CC2)C1)C(C)C [Example 27, 2-((4-(7-((2S,4R)-4-cyanopyrrolidine-2-carbonyl)-2,7-diazaspiro[3.5]nonan-2-yl)pyrimidin-5-yl)oxy)-N-ethyl-5-fluoro-N-isopropylbenzamide]
0.0087 µM	0.127 µM	CCN(C(=O)c1cc(F)ccc1Oc1cncnc1N1CC2(CCN(C(=O)[C@@H]3C[C@]4(CN3)CC4(F)F)CC2)C1)C(C)C [Example 23]
0.008 µM	0.102 µM	CCN(C(=O)c1cc(F)ccc1Oc1cncnc1N1CC2(CCN(C(=O)[C@@H]3C[C@@]4(CN3)CC4(F)F)CC2)C1)C(C)C [Example 24]
0.006 µM	0.0338 µM	CCN(C(=O)c1cc(F)ccc1Oc1cncnc1N1CC2(CCN(C(=O)[C@@H]3C[C@]4(C)C[C@@H]4N3)CC2)C1)C(C)C [Example 6]
0.0135 µM		CCN(C(=O)c1cc(F)ccc1Oc1cncnc1N1CC2(CCN(C(=O)[C@@H]3C[C@@H](NS(C)(=O)=O)CN3)CC2)C1)C(C)C [Example 18]
0.0044 µM	0.12 µM	COCCN(C(=O)c1cc(F)ccc1Oc1cncnc1N1CC2(CCN(C(=O)[C@@H]3C[C@@H](F)CN3)CC2)C1)C(C)C [Example 50]
0.0209 µM	0.329 µM	CCN(C(=O)c1cc(F)ccc1Oc1cncnc1N1CC2(CCN(C(=O)[C@@H]3C[C@H](F)CN3)CC2)C1)C(C)C [Example 3]
0.0223 µM		CCN(C(=O)c1cc(F)ccc1Oc1cncnc1N1CC2(CCN(C(=O)[C@@H]3C[C@H](NS(C)(=O)=O)CN3)CC2)C1)C(C)C [Example 16]
0.005 µM	0.0402 µM	CCN(C(=O)c1cc(Cl)ccc1Oc1cncnc1N1CC2(CCN(C(=O)[C@@H]3C[C@@H](F)CN3)CC2)C1)C(C)C [Example 19]
0.005 µM	0.0331 µM	CCN(C(=O)c1cc(F)ccc1Oc1cncnc1N1CC2(CCN(C(=O)[C@@H]3CCCCN3)CC2)C1)C(C)C [Example 4]
0.0167 µM		CCN(C(=O)c1cc(F)ccc1Oc1cncnc1N1CC2(CCN(C(=O)[C@@H]3C[C@]4(COC)CC4N3)CC2)C1)C(C)C (stereo partly drawn) [Example 13]
0.0065 µM	0.0754 µM	CCN(C(=O)c1cc(F)ccc1Oc1cncnc1N1CC2(CCN(C(=O)[C@@H]3C[C@H]4C[C@H]4N3)CC2)C1)C(C)C [Example 32]
0.0058 µM	0.0422 µM	CCN(C(=O)c1cc(F)ccc1Oc1cncnc1N1CC2(CCN(C(=O)[C@@H]3CCCN3)CC2)C1)C(C)C [Example 21]
0.0084 µM	0.233 µM	CCN(C(=O)c1cc(F)ccc1Oc1cncnc1N1CC2(CCN(C(=O)[C@@H]3CC[C@@H](F)CN3)CC2)C1)C(C)C [Example 25]
0.0092 µM		CCN(C(=O)c1cc(F)ccc1Oc1cncnc1N1CC2(CCN(C(=O)[C@@H]3CC(C)(O)CN3)CC2)C1)C(C)C (stereo partly drawn) [Example 14]
0.0129 µM	0.0407 µM	CCN(C(=O)c1cc(F)ccc1Oc1cncnc1N1CC2(CCN(C(=O)[C@@H]3C[C@@]4(C)C[C@H]4N3)CC2)C1)C(C)C [Example 9]
0.021 µM		CCN(C(=O)c1cc(F)ccc1Oc1cncnc1N1CC2(CCN(C(=O)[C@@H]3CSCN3)CC2)C1)C(C)C [Example 52]
0.0552 µM		CCN(C(=O)c1cc(F)ccc1Oc1cncnc1N1CC2(CCN(C(=O)[C@@H]3C[C@@H](S(C)(=O)=O)CN3)CC2)C1)C(C)C [Example 15]
0.0154 µM		CCN(C(=O)c1cc(F)ccc1Oc1cncnc1N1CC2(CCN(C(=O)[C@@H]3C[C@@H](F)CN3)C2)C1)C(C)C [Example 37]
